As usually defined, the inhibition is the drop in the measured response relative to a control, in per cent. As usually defined, the IC50 is the concentration needed to halve the response being measured.

Where two headings read alike, the source gives them in different places.

In assay [1] the target is T1, Arginase (Homo sapiens, UniProt P05089).
T1 sequence (P05089 1-322): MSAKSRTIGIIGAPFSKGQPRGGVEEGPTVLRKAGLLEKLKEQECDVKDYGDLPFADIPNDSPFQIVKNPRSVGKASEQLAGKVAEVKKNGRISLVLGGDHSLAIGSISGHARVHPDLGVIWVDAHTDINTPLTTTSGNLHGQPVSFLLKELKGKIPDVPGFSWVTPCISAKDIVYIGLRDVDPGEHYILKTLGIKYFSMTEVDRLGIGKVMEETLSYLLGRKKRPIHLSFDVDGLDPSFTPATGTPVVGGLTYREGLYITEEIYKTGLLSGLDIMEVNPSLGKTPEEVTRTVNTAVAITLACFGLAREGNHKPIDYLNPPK
The experiment in a line: Arginase Thioornithine Generating Assay (TOGA). Format: biochemical. The protocol:
Arginase Thioornithine Generating Assay (TOGA)
Compounds were serially diluted in ten 3-fold steps in DMSO starting from 10 mM DMSO stocks. Compound dilutions or DMSO alone were then dispensed from the dilution plate into a Greiner black 384-well assay plate (catalog #781086) using an Echo 555 acoustic liquid handler (Labcyte).
Arginase protein was recombinantly expressed in Escherichia coli. Purified protein was then diluted in assay buffer (50 mM Tris pH 7.5, 50 mM NaCl, 1 mM manganese chloride, 0.0500 bovine serum albumin to obtain a final Arginase concentration of 1.88 nM. Arginase solution ([…])) or buffer alone (20 μL) were dispensed to wells of the assay plate using a BioRAPTR liquid dispenser (Beckman Coulter). Assay plates containing compound and arginase enzyme were incubated at room temperature for 30 minutes. Afterwards, 5 µL of 2.5 mM thioarginine (Cayman Chemicals) in assay buffer were added to each well of the assay plate using a BioRAPTR liquid dispenser. Plates were incubated at room temperature for 60 minutes and reactions were quenched by addition of 15 μL of 200 uM 7-Diethylamine-3-(4-maleimidophenyl)-4-methyl coumarin (Sigma Chemical) in 70% ethanol. Plates were briefly shaken to mix and the fluorescence was measured in an Spectramax plate reader (Molecular Devices) with a 410 nm excitation wavelength and an 490 nm emission wavelength.
Potencies were calculated by […] least squares fit to the four parameter logistic IC50 equation.

Assay [2] concerns opossum internal anal sphincter muscle. To be noted: cited from earlier work.
For assay [3], the system named is allergic asthma model. To be noted: nebulizer treatment of guinea pigs; cited from earlier work.
Assay [4] concerns penile corpus cavernosum. To be noted: rabbit and human penile corpus cavernosum; cited from earlier work.
Assay [5] deals with live male rabbits. To be noted: cited from earlier work.
Assay [6] concerns corpus cavernosum of the diabetic man. To be noted: ex vivo; cited from earlier work.
Assay [7] has as its system live female rabbits. To be noted: cited from earlier work.
Assay [8] has as its system experimental autoimmune encephalomyelitis. To be noted: experimental autoimmune encephalomyelitis animal model; cited from earlier work.
Where [9] appears, read: Top Dose 10000 nM, read-out: Percent Inhibition at Top Dose.
The mark [10] stands for this setting: read-out: Percent Inhibition at Top Dose, Top Dose 10000 nM.

On to `O=C(O)C12CNCC1(CCCB(O)O)CCN2` (racemic) [Example 6, racemic 3a-(3-boronopropyl)hexahydropyrrolo[3,4-b]pyrrole-6a(H)-carboxylic acid], for which the inhibition at 10 µM in assay [1] (setting [9]) was found to be 91.9%. The same measure, in the same setting: with `CN1CC2(CCCB(O)O)CCNC2(C(=O)O)C1` (racemic) [Example 7, Racemic 3a-(3-boronopropyl)-5-methylhexahydropyrrolo[3,4-b]pyrrole-6a(1H)-carboxylic acid] the figure was 85.1%. Consider `N[C@@H](CCCCB(O)O)C(=O)O` [ABH, (S)-2-amino-6-boronohexanoic acid], for which the “relaxation of internal anal sphincter muscle” value in assay [2] is on record as “relax this muscle”. Further, in assay [3], the airway hyperresponsiveness result is on record as “prevents airway hyperresponsiveness”. Also, in assay [4], the “nitric oxide-dependent relaxation of corpus cavernosum tissue” value is “enhances the nitric oxide-dependent relaxation of this tissue”. Further, the erectile response entry in assay [5] is “enhances the erectile response”. In addition, the nitric oxide biosynthesis entry in assay [6] is “restores nitric oxide biosynthesis”. The “engorgement response in the genitalia” value in assay [7] is on record as “enhances the engorgement response”. The disease score result in assay [8] is “improves the disease score”. For the compound `C[C@H](N)C(=O)N1C[C@@]2(CCCB(O)O)CCN[C@@]2(C(=O)O)C1` [Example 1, (3aR,6aR)-5-(L-alanyl)-3a-(3-boronopropyl)hexahydropyrrolo[3,4-b]pyrrole-6a(H)-carboxylic acid], in assay [1] (setting [10]), the inhibition at 10 µM came out at 99.7%.

As to `NCC(=O)N1C[C@@]2(CCCB(O)O)CCN[C@@]2(C(=O)O)C1` [Example 3, (3aR,6aR)-3a-(3-boronopropyl)-5-glycylhexahydropyrrolo[3,4-b]pyrrole-6a(H)-carboxylic acid], in assay [1] (setting [10]), the inhibition at 10 µM turned out to be 89.5%. For `O=C(O)[C@]12CNC[C@@]1(CCCB(O)O)CCN2` [Example 4, (3aR,6aR)-3a-(3-boronopropyl)hexahydropyrrolo[3,4-b]pyrrole-6a(1H)-carboxylic acid], the inhibition at 10 µM in assay [1] (setting [9]) amounted to 98.2%. In assay [1] (recombinant arginase 1.88 nM, thioarginine substrate, fluorescence readout), the IC50 came out at 46 nM.

In the case of `O=C(O)[C@@]12CNC[C@]1(CCCB(O)O)CCN2` [Example 5, (3aS,6aS)-3a-(3-boronopropyl)hexahydropyrrolo[3,4-b]pyrrole-6a(H)-carboxylic acid], the inhibition at 10 µM in assay [1] (setting [9]) is 93%. For `CC(C)[C@H](N)C(=O)N1C[C@@]2(CCCB(O)O)CCN[C@@]2(C(=O)O)C1` [Example 8, (3aR,6aR)-5-(L-valyl)-3a-(3-boronopropyl)hexahydropyrrolo[3,4-b]pyrrole-6a(H)-carboxylic acid], the inhibition at 10 µM in assay [1] (setting [9]) came out at 99%. Take `N[C@@H](CO)C(=O)N1C[C@@]2(CCCB(O)O)CCN[C@@]2(C(=O)O)C1` [Example 9, (3aR,6aR)-5-(L-seryl)-3a-(3-boronopropyl)hexahydropyrrolo[3,4-b]pyrrole-6a(1H)-carboxylic acid]: the inhibition at 10 µM in assay [1] (setting [10]) was found to be 97.3%. The same measure, in the same setting: to `O=C([C@@H]1CCCN1)N1C[C@@]2(CCCB(O)O)CCN[C@@]2(C(=O)O)C1` [Example 10, (3aR,6aR)-5-(L-prolyl)-3a-(3-boronopropyl)hexahydropyrrolo[3,4-b]pyrrole-6a(1H)-carboxylic acid] belongs 96.6%. Take `O=C(O)[C@]12CNC[C@@]1(CCCB(O)O)CN2` [Example 11, (1S,5R)-1-(3-boronopropyl)-3,6-diazabicyclo[3.2.0]heptane-5-carboxylic acid]: the inhibition at 10 µM in assay [1] (setting [9]) turned out to be 99.5%. As to `NC[C@@H]1NC[C@]2(C(=O)O)NCC[C@]12CCCB(O)O` [Example 12, (3aR,4R,6aR)-4-(aminomethyl)-3a-(3-boronopropyl)hexahydropyrrolo[3,4-b]pyrrole-6a(1H)-carboxylic acid], the inhibition at 10 µM in assay [1] (setting [10]) stood at 100%.

Regarding `CSCC[C@H](N)C(=O)N1C[C@@]2(CCCB(O)O)CCN[C@@]2(C(=O)O)C1` [Example 13], the inhibition at 10 µM in assay [1] (setting [9]) was 102%.

In the case of `CC(C)(C)[C@H](N)C(=O)N1C[C@@]2(CCCB(O)O)CCN[C@@]2(C(=O)O)C1` [Example 14], the inhibition at 10 µM in assay [1] (setting [9]) was determined as 102%. Regarding `CC(C)C[C@H](N)C(=O)N1C[C@@]2(CCCB(O)O)CCN[C@@]2(C(=O)O)C1` [Example 15], the inhibition at 10 µM in assay [1] (setting [9]) was determined as 96.7%. On the same count and under the same terms, to `CC(C)(N)C(=O)N1C[C@@]2(CCCB(O)O)CCN[C@@]2(C(=O)O)C1` [Example 16] belongs 97.3%; to `COC[C@H](N)C(=O)N1C[C@@]2(CCCB(O)O)CCN[C@@]2(C(=O)O)C1` [Example 17], 97.8%. Same read-out and setting: with `C[C@H](N)C(=O)N1C[C@@]2(CCCB3O[C@@H]4C[C@@H]5C[C@@H](C5(C)C)[C@]4(C)O3)CCN[C@@]2(C(=O)O)C1` [Example 18, (3aR,6aR)-5-(L-alanyl)-3a-(3-((3aS,4S,6S,7aR)-3a,5,5-trimethylhexahydro-4,6-methanobenzo[d][1,3,2]dioxaborol-2-yl)propyl)hexahydropyrrolo[3,4-b]pyrrole-6a(1H)-carboxylic acid] the figure was 97.9%.

(Values after patent US12240867B2, “Arginase inhibitors and methods of use” (Merck Sharp & Dohme LLC, priority 2018, dated 2025).)
